Columns and labels:
Type in all cases: in vivo, mice (C57BL/6)
[1] = system: model animals with acute colitis induced by TNBS; experiment: Acute colitis induced by TNBS in mice, primary experiment: weight change, colon appearance score, colon length; settings: TNBS-treated mice, 10 mg/kg orally once daily for 3 days, percentage to normal group (saline, no TNBS)
Method: All the mice were bred under the controlled environmental conditions of 50±10% of humidity at a temperature of 20° C. to 22° C., and the lighting was provided by repeatedly turning on for 12 hours followed by turning off for 12 hours. A feed for a standard experiment (Samyang, Korea) was used as a feed, and ad libitum access to water was allowed. In all experiments, each group consisted of 6 mice. […] Meanwhile, for the normal group, 0.1 mL of normal saline solution was orally administered. Subsequently, from the following day, the sample dissolved in normal saline solution was orally administered at a predetermined volume once daily for 3 days. On the following day after completing the sample administration, the experimental animals were suffocated to death with carbon dioxide, and the colon from the appendix to the region immediately before the anus was removed from the colon region. In this case, as a drug sample, the experiments using the butanol-soluble fraction of the Anemarrhena asphodeloides Bunge extract, mangiferin, and a combined extract were separately performed with time intervals, respectively, and the effects of the drug samples on preventing or treating colitis were reasonably analyzed based on the group supplied with normal saline solution instead of a specific drug in the model animals not treated with TNBS, for each of the experiments. The sample administration to the model animals with colitis induced by TNBS was stopped, and on the following day, the weight of the experimental animals was measured, and the measured weight was compared with the initial weight to calculate the amount of change in weight. The scores about the removed colons were estimated by observing the appearances and the length of the colons according to the following criteria (Hollenbach, et al., the criteria about the colitis level in 2005) as listed in Table 1. In this case, as a positive control group, the group administered with Mesalazine® (Sigma) was used. […]

Myeloperoxidase (MPO) [2] = experiment: MPO activity in colon tissue (ELISA kit), TNBS acute colitis, primary experiment; settings: TNBS-treated mice, 10 mg/kg orally once daily for 3 days, percentage to normal group
Method: (§1) Among the experimental groups, one group was set as a normal group, and the experimental animals in other groups were induced with acute colitis by 2,4,6-trinitrobenzenesulfonic acid (TNBS). In detail, after lightly anesthetizing the experimental animals with ether, 0.1 mL of the solution prepared by mixing 2.5 g of 2,4,6-Trinitrobenzene sulfonic acid (NBS) solution with 50% ethanol was injected into the colon through the anus using a syringe having 1 mL volume and an oval point, respectively; the syringe was vertically picked up, and then, maintained for 30 seconds to induce inflammation. Meanwhile, for the normal group, 0.1 mL of normal saline solution was orally administered. […] In this case, as a drug sample, the experiments using the butanol-soluble fraction of the Anemarrhena asphodeloides Bunge extract, mangiferin, and a combined extract were separately performed with time intervals, respectively, and the effects of the drug samples on preventing or treating colitis were reasonably analyzed based on the group supplied with normal saline solution instead of a specific drug in the model animals not treated with TNBS, for each of the experiments.
100 mg of colon tissues were homogenized after adding 200 μL of lysis buffer thereto. […] Subsequently, 100 μL of a stop solution was added to terminate the reaction, and the absorbance was measured at 450 nm using an ELISA reader.

TNF-α = TNF-α expression in colon tissue (ELISA), TNBS acute colitis, primary experiment; settings: TNBS-treated mice, 10 mg/kg orally once daily for 3 days, percentage to normal group
Method: as §1, with “administered. Subsequently, from the following day, the sample dissolved in normal saline solution was orally administered at a predetermined volume once daily for 3 days.” for “administered.”, “experiments. […]” for “experiments.”

IL-1β = IL-1β expression in colon tissue (ELISA), TNBS acute colitis, primary experiment; settings: TNBS-treated mice, 10 mg/kg orally once daily for 3 days, percentage to normal group
Method: as §1, with “administered. Subsequently, from the following day, the sample dissolved in normal saline solution was orally administered at a predetermined volume once daily for 3 days.” for “administered.”, “experiments. […]” for “experiments.”

IL-6 = IL-6 expression in colon tissue (ELISA), TNBS acute colitis, primary experiment; settings: TNBS-treated mice, 10 mg/kg orally once daily for 3 days, percentage to normal group
Method: as §1, with “administered. Subsequently, from the following day, the sample dissolved in normal saline solution was orally administered at a predetermined volume once daily for 3 days.” for “administered.”, “experiments. […]” for “experiments.”

IL-10 = IL-10 expression in colon tissue (ELISA), TNBS acute colitis, primary experiment; settings: TNBS-treated mice, 10 mg/kg orally once daily for 3 days, percentage to normal group
Method: as §1, with “administered. Subsequently, from the following day, the sample dissolved in normal saline solution was orally administered at a predetermined volume once daily for 3 days.” for “administered.”, “experiments. […]” for “experiments.”

[3] = system: model animals with acute colitis induced by TNBS; experiment: Acute colitis induced by TNBS in mice, secondary experiment (extract-based and fraction-based): weight change, colon length, macroscopic score; settings: TNBS-treated mice, percentage to normal group
Method: All the mice were bred under the controlled environmental conditions of 50±10% of humidity at a temperature of 20° C. to 22° C., and the lighting was provided by repeatedly turning on for 12 hours followed by turning off for 12 hours. A feed for a standard experiment (Samyang, Korea) was used as a feed, and ad libitum access to water was allowed. In all experiments, each group consisted of 6 mice. […] Meanwhile, for the normal group, 0.1 mL of normal saline solution was orally administered. Subsequently, from the following day, the sample dissolved in normal saline solution was orally administered at a predetermined volume once daily for 3 days. On the following day after completing the sample administration, the experimental animals were suffocated to death with carbon dioxide, and the colon from the appendix to the region immediately before the anus was removed from the colon region. In this case, the experiments, where an ethanol extract of Anemarrhena asphodeloides Bunge, an ethanol extract of Coptis chinensis, a combined extract of the ethanol extract of Anemarrhena asphodeloides Bunge and the ethanol extract of Coptis chinensis, and a combined extract of a water extract of Anemarrhena asphodeloides Bunge and a water extract of Coptis chinensis were used as drug samples (hereinafter, “extract-based experiment”), and the experiments, where a butanol-soluble fraction of the ethanol extract of Anemarrhena asphodeloides Bunge, a butanol-soluble fraction of the ethanol extract of Coptis chinensis, and a combined extract of the butanol-soluble fraction of the ethanol extract of Anemarrhena asphodeloides Bunge and the butanol-soluble fraction of the ethanol extract of Coptis chinensis were used as drug samples (hereinafter, “fraction-based experiment”) were separately performed with time intervals, respectively. Considering the characteristics of animal experiments, it is reasonable that the effects of the drug samples on preventing or treating colitis be evaluated within each of the experiments and that the normal group supplied with saline solution instead of a specific drug sample, for the experimental animals not treated with TNBS, be used as a standard. The sample administration to the model animals with colitis induced by TNBS was stopped, and on the following day, the weight of the experimental animals was measured were and then compared with their initial weight to calculate the change in the amount of weight. The scores on the removed colons were estimated by observing the appearances and the length of the colons according to the criteria (Hollenbach et al., the criteria on the levels of colon in 2005) listed in Table 3. In this case, as a positive control group, the group administered with Mesalazine® (Sigma) was used. Additionally, a portion of the content in the colon was collected to analyze the intestinal microorganisms, and then stored in a freezer maintained at −80° C. From the tissues of colon, the content in the colon was completely removed and then the tissues of colon were washed with normal saline solution.

Myeloperoxidase (MPO) [4] = experiment: MPO activity in colon tissue (ELISA kit), TNBS acute colitis, secondary experiment; settings: TNBS-treated mice, percentage to normal group
Method: Among the experimental groups, one group was set as a normal group, and the experimental animals in other groups were induced with acute colitis by 2,4,6-trinitrobenzenesulfonic acid (TNBS). In detail, after lightly anesthetizing the experimental animals with ether, 0.1 mL of the solution prepared by mixing 2.5 g of 2,4,6-Trinitrobenzene sulfonic acid (NBS) solution with 50% ethanol was injected into the colon through the anus using a syringe having 1 mL volume and an oval point, respectively; the syringe was vertically picked up, and then, maintained for 30 seconds to induce inflammation. Meanwhile, for the normal group, 0.1 mL of normal saline solution was orally administered. Subsequently, from the following day, the sample dissolved in normal saline solution was orally administered at a predetermined volume once daily for 3 days. On the following day after completing the sample administration, the experimental animals were suffocated to death with carbon dioxide, and the colon from the appendix to the region immediately before the anus was removed from the colon region. In this case, the experiments, where an ethanol extract of Anemarrhena asphodeloides Bunge, an ethanol extract of Coptis chinensis, a combined extract of the ethanol extract of Anemarrhena asphodeloides Bunge and the ethanol extract of Coptis chinensis, and a combined extract of a water extract of Anemarrhena asphodeloides Bunge and a water extract of Coptis chinensis were used as drug samples (hereinafter, “extract-based experiment”), and the experiments, where a butanol-soluble fraction of the ethanol extract of Anemarrhena asphodeloides Bunge, a butanol-soluble fraction of the ethanol extract of Coptis chinensis, and a combined extract of the butanol-soluble fraction of the ethanol extract of Anemarrhena asphodeloides Bunge and the butanol-soluble fraction of the ethanol extract of Coptis chinensis were used as drug samples (hereinafter, “fraction-based experiment”) were separately performed with time intervals, respectively. Considering the characteristics of animal experiments, it is reasonable that the effects of the drug samples on preventing or treating colitis be evaluated within each of the experiments and that the normal group supplied with saline solution instead of a specific drug sample, for the experimental animals not treated with TNBS, be used as a standard.
100 mg of colon tissues were homogenized after adding 200 μL of lysis buffer thereto. The homogenized colon tissues were centrifuged at 4° C. at a rate of 13000 rpm for 15 minutes, the supernatant therefrom was recovered, and the MPO activity was measured using a mouse MPO assay ELISA kit (Hbt HK210, USA). 100 μL of the supernatant was added into a 96-well plate and reacted at room temperature for 1 hour. Upon completion of the reaction, the plate was emptied by overturning, repeatedly washed three times with 200 μL of washing buffer, added with 100 μL of diluted tracer, and then the reaction was allowed to perform at room temperature for 1 hour. Upon completion of the reaction, the plate was emptied by overturning, and each well of the plate was washed using 200 μL of washing buffer. After repeatedly performing the washing process three times using 200 μL of washing buffer, 100 μL of diluted streptavidin-peroxidase conjugate was added thereto, and the reaction was allowed to perform at room temperature for 1 hour. Upon completion of the reaction, the plate was emptied by overturning, and each well of the plate was washed with 200 μL of washing buffer. After repeatedly washing three times using 200 μL of washing buffer, 100 μL of TMB substrate solution was added thereto, the plate was wrapped with an aluminum foil to block out the light, and the reaction was performed at room temperature for 30 minutes. Subsequently, 100 μL of a stop solution was added to terminate the reaction, and the absorbance was measured at 450 nm using an ELISA reader.

[5] = extract-based experiment, 10 mg/kg orally once daily for 3 days
[6] = extract-based experiment, 20 mg/kg orally once daily for 3 days
[7] = extract-based experiment, 50 mg/kg orally once daily for 3 days
[8] = fraction-based experiment, 10 mg/kg orally once daily for 3 days
[9] = fraction-based experiment, 20 mg/kg orally once daily for 3 days
[10] = fraction-based experiment, 50 mg/kg orally once daily for 3 days

Work on Nc1ccc(O)c(C(=O)O)c1 [Mesalazine ®, Mesalazine] yielded a Body weight [1] of 93.2%, a Colon length [1] of 89.9% and a Macroscopic score [1] of 550.5%. For the same compound, the MPO activity (Myeloperoxidase (MPO) [2]) was 1111.6%, the TNF-α (TNF-α) was 304.1% and the IL-1β (IL-1β) was 618.4%. For the same compound, the IL-6 (IL-6) was 190.0%, the IL-10 (IL-10) was 53.1% and the Body weight [3, 5] was 59.46%. The Colon length [3, 5] was 89.06%, the Macroscopic score [3, 5] was 420% and the Body weight [3, 6] was 78.38%. For the same compound, the Colon length [3, 6] was 90.63%, the Macroscopic score [3, 6] was 420% and the Body weight [3, 7] was 75.68%. For the same compound, the Colon length [3, 7] was 90.63%, the Macroscopic score [3, 7] was 450% and the Body weight [3, 8] was 59.46%. The Colon length [3, 8] was 90.48%, the Macroscopic score [3, 8] was 500% and the Body weight [3, 9] was 78.38%. It also gave a Colon length [3, 9] of 92.06%, a Macroscopic score [3, 9] of 500% and a Body weight [3, 10] of 75.68%. For the same compound, the Colon length [3, 10] was 92.06%, the Macroscopic score [3, 10] was 600% and the MPO activity (Myeloperoxidase (MPO) [4]; [5]) was 360%. For the same compound, the MPO activity (Myeloperoxidase (MPO) [4]; [6]) was 360%, the MPO activity (Myeloperoxidase (MPO) [4]; [7]) was 390% and the MPO activity (Myeloperoxidase (MPO) [4]; [8]) was 300%. The MPO activity (Myeloperoxidase (MPO) [4]; [9]) was 300% and the MPO activity (Myeloperoxidase (MPO) [4]; [10]) was 317%.

From patent publication US10751381B2, “Composition for preventing, relieving or treating colitis, containing complex extracts” (UNIVERSITY-INDUSTRY COOPERATION GROUP OF KYUNG HEE …, priority 2013, dated 2020)
